Results as given in patent US12649739B2, “Imidazoquinoline compound having anti-inflammatory, antifugal, antiparasitic, and anticancer activity” (PHARMA CINQ, LLC, priority 2020, dated 2026).

Tests used:
[1] = system: imiquimod-induced dermatitis; assay: Imiquimod-induced psoriasiform dermatitis in mice, topical ointment; type: in vivo
[2] = system: A549 (lung cancer) cell line; assay: Cell viability, WST-1 assay, A549 cells; type: cell-based; settings: 48 and 72 hours, WST-1, FIGS. 1 and 2
[3] = system: PC3 (prostate cancer) cell line; assay: Cell viability, WST-1 assay, PC3 cells; type: cell-based; settings: 48 and 72 hours, WST-1, FIGS. 3 and 4
C. neoformans = settings: in vitro, maximal inhibition

| SMILES | ear thickness (caliper measurements) ([1]; female Balb/C mice, 0.01% ointment topically on ears, started day 5 of imiquimod, FIG. 5) | PASI scoring (erythema, thickening, scaling, cumulative) ([1]; female Balb/C mice, 0.01% ointment topically on ears, started day 5 of imiquimod, FIGS. 6A-D) | efficacy in model of psoriasiform dermatitis ([1]; ointment concentration of 0.01%) | doses reducing cancer cell viability, relative to those required for similar reductions by compound AF [2] | doses reducing cancer cell viability, relative to those required for similar reductions by compound AF [3] | inhibition of C. neoformans growth (ceiling) (C. neoformans) |
| --- | --- | --- | --- | --- | --- | --- |
| c1ccc(Oc2cccc(Cc3nc4cnc5ccccc5c4[nH]3)c2)cc1 [Compound GE, 2-(3-Phenoxybenzyl)-1H-imidazo[4,5-c]quinoline] | reduced imiquimod-induced inflammatory damage to mouse ears | reducing all three aspects of dermal inflammation captured by the PASI scoring system | effective | approximately 1/10 | approximately 1/10 |  |
| CCN(CC)CCCC(C)Nc1ccnc2cc(Cl)ccc12 (stereo not drawn) [Chloroquine] |  |  |  |  |  | about 40% |
